Data from patent US5677282A (Proscript, Inc., priority 1995, dated 1997).

target: stromelysin (Homo sapiens, UniProt P08254); assay: Assay of stromelysin inhibition activity (fluorogenic coumarin peptide substrate); type: biochemical; details: trypsin-activated stromelysin 2 nM, H-150 buffer pH 7.4, room temperature; read-out: Ki(app)
Procedure: Stromelysin was first activated with trypsin. This was done by preparing a reaction mixture in H-150 (H-150 consists of 10 mM CaCl2, 150 mM NaCl and 100 mM HEPES at pH 7.4) containing a final concentration of 25 μg/mL trypsin and 2.2 μM of stromelysin (Marcy et al., Biochemistry,30:6476 (1991); Koklitis et al., Biochem. J., 376:217 (1991). The reaction was incubated for 30 minutes at 37° C. and then quenched by adding trypsin inhibitor agarose to the reaction mixture at a 20 fold excess with respect to trypsin.
The reaction mixture was centrifuged at 14,000 rpm (16,000 ×g) for 30 minutes using an Eppendorf Centrifuge 5415C. The supernant, which contains activated stromelysin, was concentrated with a Centricon 10 (5000 g, 1 hour). A sample was analyzed by Bradford total protein assay and 12% SDS polyacrylamide gel electrophoresis.
All steps of the stromelysin inhibition assay were performed at room temperature. Assay solutions were prepared for each inhibitor tested. Activated stromelysin was added to a stirred covelte to a final concentration of 2 nM in 2 mL of H-150 buffer. 4 μL 5 mM coumarin peptide substrate was dissolved in DMSO and the initial rate of hydrolysis was measured for 100-200 seconds.
Substrate hydrolysis was assessed by fluorescence using a slit width of 10:10, excitation at 328 nm and emission at 393 nm. Ki was calculated based on the assumption of simple competitive inhibition and a substrate concentration much less than Km. 2 μL of 10 mM inhibitor in DMSO was added and the reduction in hydrolysis rate measured. The addition of 2 μL of inhibitor was continued until a 30-70% inhibition was observed.

stromelysin, sequence (P08254 100-477): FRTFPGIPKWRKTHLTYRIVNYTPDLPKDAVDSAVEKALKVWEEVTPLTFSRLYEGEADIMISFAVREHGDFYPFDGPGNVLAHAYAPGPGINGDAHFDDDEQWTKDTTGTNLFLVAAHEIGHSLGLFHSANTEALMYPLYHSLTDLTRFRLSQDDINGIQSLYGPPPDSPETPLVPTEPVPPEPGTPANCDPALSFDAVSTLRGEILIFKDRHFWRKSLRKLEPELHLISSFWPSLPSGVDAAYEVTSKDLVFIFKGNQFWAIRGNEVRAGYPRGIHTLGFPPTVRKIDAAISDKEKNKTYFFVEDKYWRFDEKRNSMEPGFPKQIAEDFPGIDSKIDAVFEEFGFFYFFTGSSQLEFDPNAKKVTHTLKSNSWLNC

Row | SMILES | Ki
1 | CC(C)[C@H](NC(=O)[C@H](Cc1cccc2ccccc12)NC(=O)OCc1ccccc1)C(=O)Nc1n[nH]c(=S)s1 | 0.19 µM
2 | CC(C)[C@H](NC(=O)[C@H](Cc1cc(I)c(O)c(I)c1)NC(=O)OCc1ccccc1)C(=O)Nc1n[nH]c(=S)s1 | 0.097 µM
3 | CC(C)(C)[C@H](NC(=O)[C@H](Cc1ccc(OCc2ccccc2)cc1)NC(=O)OCc1ccccc1)C(=O)Nc1n[nH]c(=S)s1 | 0.089 µM
4 | O=C(N[C@@H](Cc1ccc(OCc2ccccc2)cc1)C(=O)N[C@H](C(=O)Nc1n[nH]c(=S)s1)C1CCCCC1)OCc1ccccc1 | 0.071 µM
5 | CC(C)[C@H](NC(=O)[C@@H](NC(=O)OCc1ccccc1)C1CCCCC1)C(=O)Nc1n[nH]c(=S)s1 | 0.18 µM
6 | NCCCC[C@H](NC(=O)OCc1ccccc1)C(=O)N[C@@H](Cc1ccc(OCc2ccccc2)cc1)C(=O)N[C@H](C(=O)Nc1n[nH]c(=S)s1)c1ccccc1 | 1.89 µM
7 | O=C(N[C@@H](Cc1ccc(N(Cc2ccccc2)Cc2ccccc2)cc1)C(=O)NC(C(=O)Nc1n[nH]c(=S)s1)c1ccccc1)OCc1ccccc1 (stereo partly shown) [5(N-benzyloxycarbonyl-(N',N'-dibenzylamino)phenylalanine-phepylglycylamino)-1,3,4-thiadiazole-2-thione] | 0.205 µM
8 | CSCC[C@H](NC(=O)OCC1c2ccccc2-c2ccccc21)C(=O)Nc1n[nH]c(=S)s1 [5-(N-9-fluorenylmethoxycarbonyl)methionylamino)-1,3,4-thiadiazole-2-thione] | 0.195 µM
9 | CSc1ncccc1C(=O)NC(Cc1ccccc1)C(=O)NC(C(=O)Nc1n[nH]c(=S)s1)C(C)C (stereo not shown) [5-(N-(2-methylthionicotyl)phenylalanyl-valyamino)-1,3,4-thiadiazole-2-thione] | 0.917 µM
10 | CC(C)C(NC(=O)C(Cc1ccccc1)NC(=O)c1ccc(OCc2ccccc2)cc1)C(=O)Nc1n[nH]c(=S)s1 (stereo not shown) [5-(N-(4-benzyloxy)benzoyl-phenylalanyl-valylamino)-1,3,4-thiadiazole-2-thione] | 0.061 µM
11 | CC(C)[C@H](NC(=O)[C@H](Cc1ccccc1)NS(=O)(=O)c1cccc2cccnc12)C(=O)Nc1n[nH]c(=S)s1 [5-(N-(8-quinolinesulfonyl)phenylalanyl-valylamino-1,3,4-thiadiazole-2-thione] | 0.531 µM
12 | CC(C)C[C@H](NC(=O)OCC1c2ccccc2-c2ccccc21)C(=O)Nc1n[nH]c(=S)s1 [5-(N-(9-fluorenylmethoxycarbonyl)leucylamino)-1,3,4-thiadiazole-2-thione] | 0.184 µM
13 | O=C(N[C@@H](Cc1c[nH]c2ccccc12)C(=O)Nc1n[nH]c(=S)s1)OCC1c2ccccc2-c2ccccc21 [5-(N-(9-fluorenylmethoxycarbonyl)tryptonylamino)-1,3,4-thiadiazole-2-thione] | 0.341 µM
14 | CCCC(NC(=O)OCC1c2ccccc2-c2ccccc21)C(=O)Nc1n[nH]c(=S)s1 (stereo not shown) [5-(N-(9-fluorenylmethoxycarbonyl-norvalyl)-1,3,4-thiadiazole-2-thione] | 0.509 µM
15 | CC(C)[C@H](NC(=O)[C@H](Cc1ccccc1F)NC(=O)OCc1ccccc1)C(=O)Nc1n[nH]c(=S)s1 [5-(N-Benzyloxycarbonyl-(2-flouro)phenyl-valylamino)-1,3,4-thiadiazole-2-thione] | 0.633 µM
16 | CC[C@H](C)[C@H](NC(=O)OCc1ccccc1)C(=O)N[C@H](C(=O)Nc1n[nH]c(=S)s1)C(C)C [5-(N-Benzyloxycarbonyl-isoleucyl-valylamino)-1,3,4-thiadiazole-2-thione] | 0.94 µM

Row | SMILES | Ki
17 | CC(=O)N[C@@H](CC(C)C)C(=O)N[C@@H](CC(C)C)C(=O)Nc1n[nH]c(=S)s1 [5-(N-acetyl-leucyl-leucylamino)-1,3,4-thiadiazole-2-thione] | 6.44 µM
18 | CC(C)C(NC(=O)C(Cc1ccc(OCc2ccc3ccccc3c2)cc1)NC(=O)OCc1ccccc1)C(=O)Nc1n[nH]c(=S)s1 (stereo not shown) [5-(N-benzyloxycarbonyl((O-methylene-2-naphthyl)tyrosyl)-valylamino)-1,3,4-thiadiazole-2-thione] | 0.062 µM
19 | CC(C)[C@H](NC(=O)[C@H](Cc1ccc(F)cc1)NC(=O)OCc1ccccc1)C(=O)Nc1n[nH]c(=S)s1 [5-(N-benzyloxycarbonyl(para-F)phenylalanyl-valylamino)-1,3,4-thiadiazole-2-thione] | 0.156 µM
20 | CC(C)[C@H](NC(=O)[C@H](Cc1ccc2ccccc2c1)NC(=O)OCc1ccccc1)C(=O)Nc1n[nH]c(=S)s1 [5-(N-benzyloxycarbonyl-(2-(2-naphthyl)alanyl-valylamino)-1,3,4-thiadiazole-2-thione] | 0.221 µM
21 | CC(C)(NC(=O)C(Cc1ccc(OCc2ccccc2)cc1)NC(=O)OCc1ccccc1)C(=O)Nc1n[nH]c(=S)s1 (stereo not shown) [5-(N-benzyloxycarbonyl-((O-benzyl)tyrosyl)-amino-isobutyroylamino)-1,3,4-thiadiazole-2-thione] | 0.237 µM
22 | O=C(CC[C@H](NC(=O)OCc1ccccc1)C(=O)NC(C(=O)Nc1n[nH]c(=S)s1)c1ccccc1)NC(c1ccccc1)(c1ccccc1)c1ccccc1 (stereo partly shown) [5-(N-benzyloxycarbonyl-((γ-N-trityl)glutamyl)-phenylglycylamino)-1,3,4-thiadiazole-2-thione] | 0.05 µM
23 | CC(C)[C@H](NC(=O)[C@H](COCc1ccccc1)NC(=O)OCc1ccccc1)C(=O)Nc1n[nH]c(=S)s1 [5-(N-benzyloxycarbonyl-(O-benzyl)seryl-valylamino)-1,3,4-thiadiazole-2-thione] | 0.236 µM
24 | O=C(N[C@@H](Cc1ccccc1F)C(=O)Nc1n[nH]c(=S)s1)OCc1ccccc1 [5-(N-benzyloxycarbonyl-(ortho-fluoro)phenylalanylamino)-1,3,4-thiadiazole-2-thione] | 0.63 µM
25 | O=C(NC(CCC(=O)N(Cc1ccccc1)Cc1ccccc1)C(=O)NC(C(=O)Nc1n[nH]c(=S)s1)c1ccccc1)OCc1ccccc1 (stereo not shown) [5-(N-benzyloxycarbonyl-(γ-N,N-dibenzyl)glutamyl-phenylglycylamino)-1,3,4-thiadiazole2-thione] | 0.019 µM
26 | CSCC[C@H](NC(=O)[C@H](CC(C)C)NC(=O)OCc1ccccc1)C(=O)Nc1n[nH]c(=S)s1 [5-(N-benzyloxycarbonyl-leucyl-methionylamino)-1,3,4-thiadiazole-2-thione] | 0.49 µM
27 | CC(C)C[C@H](NC(=O)OCc1ccccc1)C(=O)N[C@@H](Cc1ccc(O)cc1)C(=O)Nc1n[nH]c(=S)s1 [5-(N-benzyloxycarbonyl-leucyl-tyrosylamino-1,3,4-thiadiazole-2-thione] | 1.3 µM
28 | CC(C)C[C@H](NC(=O)OCc1ccccc1)C(=O)N[C@H](C(=O)Nc1n[nH]c(=S)s1)C(C)C [5-(N-benzyloxycarbonyl-leucyl-valylamino)-1,3,4-thiadiazole-2-thione] | 0.66 µM
29 | CC(C)(C)OC(=O)NCCCC[C@H](NC(=O)OCc1ccccc1)C(=O)N[C@@H](Cc1ccc(OCc2ccccc2)cc1)C(=O)NC(C(=O)Nc1n[nH]c(=S)s1)c1ccccc1 (stereo partly shown) [5-(N-benzyloxycarbonyl-lysyl(N-ε-t-butyloxycarbonyl)-tyrosyl(O-benzyl)-phenylglycylamino-1,3,4-thiadiazole-2-thione] | 0.148 µM
30 | O=C(CNC(=O)[C@H](Cc1ccccc1)NC(=O)OCc1ccccc1)Nc1n[nH]c(=S)s1 [5-(N-benzyloxycarbonyl-phenylalanyl-glycylamino)-1,3,4-thiadiazole-2-thione] | 3.95 µM
31 | CC(C)[C@H](NC(=O)[C@H](Cc1ccccc1)NC(=O)OCc1ccccc1)C(=O)N[C@@H](Cc1c[nH]c2ccccc12)C(=O)Nc1n[nH]c(=S)s1 [5-(N-benzyloxycarbonyl-phenylalanyl-valyl-tryptonylamino)-1,3,4-thiadiazole-2-thione] | 0.273 µM
